Measurements as given in US20100298141A1, “SUBSTITUTED PYRIDINE N-OXIDE HERBICIDES” (E. I. DU PONT DE NEMOURS AND COMPANY, priority 2007, published 2010).

Columns and labels:
[1] = system: redroot pigweed; experiment: Test A pre-/postemergence greenhouse test; format: in vivo, Amaranthus retroflexus; details: for Pigweed plant response rating: 0 to 100 scale; for Plant response rating, Pigweed: 0 to 100 scale where 0 is no effect and 100 is complete control
How it was run: (§1)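 Greenhouse herbicide screen, pre- and postemergence in parallel. Soil: loam plus sand. Formulation: non-phytotoxic solvent mix with surfactant. Postemergence stage: one to two leaves, 2–10 cm height. Evaluation: visual injury, compared with untreated controls, about 10 days after treatment.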

[2] = system: corn; experiment: Test A pre-/postemergence greenhouse test; format: in vivo, Zea mays; details: for Corn plant response rating: 0 to 100 scale; for Plant response rating, Corn: 0 to 100 scale where 0 is no effect and 100 is complete control
How it was run: as §1

[3] = system: blackgrass; experiment: Test C pre-/postemergence test; format: in vivo, Alopecurus myosuroides; details: for Plant response rating (0 to 100), Blackgrass: 250 g ai/ha
How it was run: (§2)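 Compounds in a non-phytotoxic solvent with surfactant applied preemergence to seeded pots and, at the same time, postemergence to plants 2–18 cm tall (1- to 4-leaf stage). Paddy tests: pots flooded to 3 cm, compound applied into the water, depth held throughout.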

[4] = system: wheat; experiment: Test C pre-/postemergence test; format: in vivo, Triticum aestivum
How it was run: as §2

[5] = system: wild oat; experiment: Test C pre-/postemergence test; format: in vivo, Avena fatua
How it was run: as §2

[6] = system: catchweed bedstraw; experiment: Test C pre-/postemergence test; format: in vivo, Galium aparine; details: for Plant response rating (0 to 100), Galium: 250 g ai/ha
How it was run: as §2

[7] = system: bermudagrass; experiment: Test C pre-/postemergence test; format: in vivo, Cynodon dactylon; details: for Plant response rating (0 to 100), Bermudagrass: 250 g ai/ha
How it was run: as §2

[8] = system: Surinam grass; experiment: Test C pre-/postemergence test; format: in vivo, Brachiaria decumbens
How it was run: as §2

[9] = system: crabgrass; experiment: Test C pre-/postemergence test; format: in vivo, Digitaria sanguinalis; details: for Plant response rating (0 to 100), Crabgrass, Large: 250 g ai/ha
How it was run: as §2

[10] = system: kochia; experiment: Test C pre-/postemergence test; format: in vivo, Kochia scoparia
How it was run: as §2

[11] = system: eastern black nightshade; experiment: Test C pre-/postemergence test; format: in vivo, Solanum ptycanthum
How it was run: as §2

[12] = system: pigweed; experiment: Test C pre-/postemergence test; format: in vivo, Amaranthus retroflexus
How it was run: as §2

[13] = system: common (oilseed) sunflower; experiment: Test C pre-/postemergence test; format: in vivo, Helianthus annuus
How it was run: as §2

[14] = system: velvetleaf; experiment: Test C pre-/postemergence test; format: in vivo, Abutilon theophrasti
How it was run: as §2

[15] = system: rice; experiment: Test C flooded paddy test; format: in vivo, Oryza sativa; details: Flood
How it was run: (§3)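 Test compounds are applied straight into paddy water held 3 cm above the soil surface, with that flood maintained for the whole test. After 13 to 15 days in the greenhouse, each species is scored visually relative to controls.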

[16] = system: duck salad; experiment: Test C flooded paddy test; format: in vivo, Heteranthera limosa; details: Flood
How it was run: as §3

[17] = system: barnyardgrass; experiment: Test C flooded paddy test; format: in vivo, Echinochloa crus-galli; details: Flood
How it was run: as §3

[18] = Postemergence, 125 g ai/ha, 0 is no effect, 100 is complete control
[19] = Postemergence, 500 g ai/ha, 0 is no effect, 100 is complete control
[20] = Preemergence, 125 g ai/ha, 0 no effect, 100 complete control
[21] = 31 g ai/ha, Preemergence, scale 0 to 100
[22] = 62 g ai/ha, preemergence, scale 0 (no effect) to 100 (complete control)
[23] = preemergence, 125 g ai/ha, scale 0 (no effect) to 100 (complete control)
[24] = 31 g ai/ha, scale 0 to 100 (0 no effect, 100 complete control)
[25] = 62 g ai/ha, scale 0 to 100, 0 no effect, 100 complete control, 13 to 15 days
[26] = 125 g ai/ha, scale 0 to 100, 0 no effect, 100 complete control, 13 to 15 days
[27] = 250 g ai/ha, scale 0 to 100 (0 no effect, 100 complete control)
[28] = 62 g ai/ha, Preemergence, scale 0 to 100
[29] = Preemergence, 31 g ai/ha, scale 0 to 100 (0 no effect, 100 complete control)

## Cc1cc[n+]([O-])c(S(=O)(=O)C(C)c2c(C(F)(F)F)nn(C)c2Cl)c1 (racemic) [Compound 14]
[1]; [18]
  Pigweed plant response rating: 0
[1]; [19]
  Pigweed plant response rating: 10
[1]; [20]
  Pigweed plant response rating: 100
[1]; Preemergence, 500 g ai/ha
  Plant response rating, Pigweed: 100
[2]; [18]
  Corn plant response rating: 0
[2]; [19]
  Corn plant response rating: 50
[2]; [20]
  Corn plant response rating: 0
[2]; Preemergence, 500 g ai/ha
  Plant response rating, Corn: 70
[3]; [21]
  Blackgrass plant response rating: 40
[3]; [22]
  Blackgrass plant response rating: 80
[3]; Preemergence
  Plant response rating (0 to 100), Blackgrass: 80
[4]; [22]
  Wheat plant response rating: 20
[4]; Preemergence, 250 g ai/ha
  Plant response rating (0 to 100), Wheat: 80
[4]; [23]
  Wheat plant response rating: 50
[5]; [21]
  Oat, Wild plant response rating: 0
[5]; [22]
  Oat, Wild plant response rating: 0
[5]; Preemergence, 250 g ai/ha
  Plant response rating (0 to 100), Oat, Wild: 75
[5]; [23]
  Oat, Wild plant response rating: 10
[6]; [21]
  Galium plant response rating: 0
[6]; [22]
  Galium plant response rating: 100
[6]; Preemergence
  Plant response rating (0 to 100), Galium: 100
[6]; [23]
  Galium plant response rating: 100
[7]; [21]
  Bermudagrass plant response rating: 80
[7]; [22]
  Bermudagrass plant response rating: 100
[7]; Preemergence
  Plant response rating (0 to 100), Bermudagrass: 100
[7]; [23]
  Bermudagrass plant response rating: 100
[8]; [22]
  Surinam Grass plant response rating: 85
[8]; Preemergence, 250 g ai/ha
  Plant response rating (0 to 100), Surinam Grass: 100
[8]; [23]
  Surinam Grass plant response rating: 95
[9]; [21]
  Crabgrass, Large plant response rating: 100
[9]; [22]
  Crabgrass, Large plant response rating: 100
[9]; Preemergence
  Plant response rating (0 to 100), Crabgrass, Large: 100
[9]; [23]
  Crabgrass, Large plant response rating: 100
[10]; [21]
  Kochia plant response rating: 0
[10]; [22]
  Kochia plant response rating: 0
[10]; Preemergence, 250 g ai/ha
  Plant response rating (0 to 100), Kochia: 100
[10]; [23]
  Kochia plant response rating: 100
[11]; [21]
  Nightshade plant response rating: 80
[11]; [22]
  Nightshade plant response rating: 100
[11]; Preemergence, 250 g ai/ha
  Plant response rating (0 to 100), Nightshade: 100
[11]; [23]
  Nightshade plant response rating: 100
[12]; [21]
  Pigweed plant response rating: 100
[12]; [22]
  Pigweed plant response rating: 100
[12]; Preemergence, 250 g ai/ha
  Plant response rating (0 to 100), Pigweed: 100
[12]; [23]
  Pigweed plant response rating: 100
[13]; [22]
  Sunflower plant response rating: 85
[13]; Preemergence, 250 g ai/ha
  Plant response rating (0 to 100), Sunflower: 100
[13]; [23]
  Sunflower plant response rating: 98
[14]; [22]
  Velvetleaf plant response rating: 10
[14]; Preemergence, 250 g ai/ha
  Plant response rating (0 to 100), Velvetleaf: 100
[14]; [23]
  Velvetleaf plant response rating: 100
[15]; [24]
  Plant response rating, Rice: 0
[15]; [25]
  Plant response rating, Rice: 0
[15]; [26]
  Plant response rating, Rice: 60
[15]; [27]
  Plant response rating, Rice: 70
[16]; [24]
  Plant response rating, Ducksalad: 40
[16]; [25]
  Plant response rating, Ducksalad: 50
[16]; [26]
  Plant response rating, Ducksalad: 80
[16]; [27]
  Plant response rating, Ducksalad: 100
[17]; [24]
  Plant response rating, Barnyardgrass: 0
[17]; [25]
  Plant response rating, Barnyardgrass: 0
[17]; [26]
  Plant response rating, Barnyardgrass: 60
[17]; [27]
  Plant response rating, Barnyardgrass: 100

## Cn1nc(C(F)(F)F)c(C[S+]([O-])c2cccc[n+]2[O-])c1OCC(F)(F)F (racemic) [Compound 28]
[1]; [18]
  Pigweed plant response rating: 70
[1]; [19]
  Pigweed plant response rating: 90
[1]; [20]
  Pigweed plant response rating: 100
[1]; Preemergence, 500 g ai/ha
  Plant response rating, Pigweed: 100
[2]; [18]
  Corn plant response rating: 60
[2]; [19]
  Corn plant response rating: 70
[2]; [20]
  Corn plant response rating: 0
[2]; Preemergence, 500 g ai/ha
  Plant response rating, Corn: 80
[3]; [28]
  Blackgrass plant response rating: 100
[3]; [29]
  Plant response rating, Blackgrass: 100
[3]; Preemergence
  Plant response rating (0 to 100), Blackgrass: 100
[3]; [23]
  Blackgrass plant response rating: 100
[4]; [28]
  Wheat plant response rating: 40
[4]; [29]
  Plant response rating, Wheat: 0
[5]; [28]
  Oat, Wild plant response rating: 75
[5]; [29]
  Plant response rating, Oat, Wild: 70
[6]; [28]
  Galium plant response rating: 100
[6]; [29]
  Plant response rating, Galium: 100
[6]; Preemergence
  Plant response rating (0 to 100), Galium: 100
[7]; 62 g ai/ha, Preemergence, scale 0 to 100 (0 no effect, 100 complete control)
  Bermudagrass plant response rating: 100
[7]; [29]
  Plant response rating, Bermudagrass: 100
[7]; Preemergence
  Plant response rating (0 to 100), Bermudagrass: 100
[7]; [23]
  Bermudagrass plant response rating: 100
[8]; [28]
  Surinam Grass plant response rating: 100
[8]; [29]
  Plant response rating, Surinam Grass: 85
[9]; [28]
  Crabgrass, Large plant response rating: 100
[9]; [29]
  Plant response rating, Crabgrass, Large: 100
[9]; Preemergence
  Plant response rating (0 to 100), Crabgrass, Large: 100
[10]; [28]
  Kochia plant response rating: 100
[10]; [29]
  Plant response rating, Kochia: 100
[11]; [28]
  Nightshade plant response rating: 100
[11]; [29]
  Plant response rating, Nightshade: 90
[12]; [28]
  Pigweed plant response rating: 100
[12]; [29]
  Plant response rating, Pigweed: 100
[13]; [28]
  Sunflower plant response rating: 85
[13]; [29]
  Plant response rating, Sunflower: 50
[14]; [28]
  Velvetleaf plant response rating: 100
[14]; [29]
  Plant response rating, Velvetleaf: 80
[15]; [24]
  Plant response rating, Rice: 0
[15]; [25]
  Plant response rating, Rice: 25
[15]; [26]
  Plant response rating, Rice: 65
[15]; [27]
  Plant response rating, Rice: 80
[16]; [24]
  Plant response rating, Ducksalad: 65
[16]; [25]
  Plant response rating, Ducksalad: 80
[16]; [26]
  Plant response rating, Ducksalad: 95
[16]; [27]
  Plant response rating, Ducksalad: 95
[17]; [24]
  Plant response rating, Barnyardgrass: 0
[17]; [25]
  Plant response rating, Barnyardgrass: 20
[17]; [26]
  Plant response rating, Barnyardgrass: 65
[17]; [27]
  Plant response rating, Barnyardgrass: 85
